Assay [1] concerns the target T1, Human GPR40 (Homo sapiens, UniProt O14842). Put plainly: Inositol Phosphate Turnover (IP1) Assay. The arrangement: expressed in transfected cells; host or cells: HEK cells (stably expressing the aequorin reporter). The note with it: HEK cells stably expressing human GPR40, CisBio IP-One kit. Format: cell-based. The gist of the method: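 HEK cells stably expressing human GPR40, plated 15,000 per well and incubated 16 h, then exposed to compound for 60 min at 37 degrees in stimulation buffer. IP1 measured by HTRF (IP-One) as 665/620 nm ratio, converted to IP1 concentration via a standard curve.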

The target of assay [2] is T1, Human GPR40. The assay is described as follows: FLIPR assay, agonist-induced calcium mobilization. It is filed as cell-based. Particulars: GPR40/CHO NFAT BLA cells. The arrangement: expressed in transfected cells. The essentials: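 CHO NFAT-BLA cells stably expressing human GPR40 were loaded 100 min at room temperature with buffer (HMS, 0.1% BSA, 20 mM HEPES, 2.5 mM probenecid, pH 7.4) containing 8 μM fluo-4 AM. The agonist-induced calcium rise after compound addition was read as FLIPR fluorescence.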
Background: A change in cytosolic calcium serves as a functional read-out for many receptors and channels.

As usually defined, the EC50 is the concentration giving half of the maximal effect.

T1 sequence (O14842 whole entry): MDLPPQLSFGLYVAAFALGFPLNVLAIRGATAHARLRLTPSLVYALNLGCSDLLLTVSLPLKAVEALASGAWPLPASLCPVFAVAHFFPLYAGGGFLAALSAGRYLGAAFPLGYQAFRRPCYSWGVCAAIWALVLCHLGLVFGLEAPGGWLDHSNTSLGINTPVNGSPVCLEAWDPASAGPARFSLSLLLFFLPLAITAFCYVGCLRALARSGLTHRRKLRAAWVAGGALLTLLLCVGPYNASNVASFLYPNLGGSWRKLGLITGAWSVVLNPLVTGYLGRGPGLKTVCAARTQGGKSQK

For `COc1ncccc1C1CCC(C)(C)c2cc(F)c(COc3cc4c(cn3)[C@H]3[C@@H](C4)[C@@H]3C(=O)O)cc21` (stereo partly drawn) [Example 27, (5aR,6S,6aS)-3-((3-fluoro-8-(2-methoxypyridin-3-yl)-5,5-dimethyl-5,6,7,8-tetrahydronaphthalen-2-yl)methoxy)-5,5a,6,6a-tetrahydrocyclopropa [4,5]cyclopenta[1,2-c]pyridine-6-carboxylic acid], the EC50 on Human GPR40 [1] was found to be 15.6 nM; at Human GPR40 [2] it was 7.22 nM.
In the same order, the values of `O=C(O)[C@H]1[C@@H]2Cc3cc(OCc4cc5c(cc4F)CCCC5c4ccccc4C(F)(F)F)ncc3[C@@H]21` (stereo partly drawn) [Example 44, (5aR,6S,6aS)-3-((3-fluoro-8-(2-(trifluoro-methyl)phenyl)-5,6,7,8-tetrahydronaphthalen-2-yl)methoxy)-5,5a,6,6a-tetrahydrocyclopropa[4,5] cyclopenta[1,2-c]pyridine-6-carboxylic acid] are 68 nM and 21 nM.
Consider `CC1CC(c2ccccc2C(F)(F)F)c2cc(COc3cc4c(cn3)[C@H]3[C@@H](C4)[C@@H]3C(=O)O)ccc21` (stereo partly drawn) [Example 5, (5aR,6S,6aS)-3-((1-methyl-3-(2-(trifluoromethyl)phenyl)-2,3-dihydro-1H-inden-5-yl)methoxy)-5,5a,6,6a-tetrahydrocyclopropa[4,5]cyclopenta[1,2-c]pyridine-6-carboxylic acid], for which the EC50 at Human GPR40 [1] stood at 21.6 nM; at Human GPR40 [2] it was 20.8 nM.
For `O=C(O)[C@H]1[C@@H]2Cc3cc(OCc4ccc5c(c4)N(c4ccccc4C(F)(F)F)CC5)ncc3[C@@H]21` [Example 33] the same measures were 26.2 nM and 15.3 nM.
In the same order, the values of `O=C(O)[C@H]1[C@@H]2Cc3cc(OCc4ccc5c(c4)C(c4ccccc4C(F)(F)F)CCO5)ncc3[C@@H]21` (stereo partly drawn) [Example 48, (5aR,6S,6aS)-3-((4-(2-(trifluoromethyl)phenyl)chroman-6-yl)methoxy)-5,5a,6,6a-tetrahydrocyclopropa[4,5]cyclopenta[1,2-c]pyridine-6-carboxylic acid] are 36.2 nM and 77.8 nM.
In the case of `CC1(C)CC(c2ccccc2)c2cc(COc3cc4c(cn3)[C@H]3[C@@H](C4)[C@@H]3C(=O)O)ccc21` (stereo partly drawn) [Example 9, (5aR,6S,6aS)-3-((1,1-dimethyl-3-phenyl-2,3-dihydro-1H-inden-5-yl)methoxy)-5,5a,6,6a-tetrahydrocyclopropa[4,5]cyclopenta[1,2-c]pyridine-6-carboxylic acid], the figures for the EC50 on Human GPR40 [1] and at Human GPR40 [2] were 22.4 nM and 16.9 nM, respectively.
As to `CC1(c2ccccc2C(F)(F)F)OCc2ccc(COc3cc4c(cn3)[C@H]3[C@@H](C4)[C@@H]3C(=O)O)cc21` (stereo partly drawn) [Example 40], the concentration for a half-maximal effect (EC50) at Human GPR40 [1] turned out to be 431 nM; at Human GPR40 [2], 16.7 nM.
For `O=C(O)[C@H]1[C@@H]2Cc3cc(OCc4ccc5c(c4)N(c4ccccc4)CC5)ncc3[C@@H]21` [Example 35, (5aR,6S,6aS)-3-((1-(2-phenyl)indolin-6-yl)methoxy)-5,5a,6,6a-tetrahydrocyclopropa[4,5] cyclopenta[1,2-c]pyridine-6-carboxylicacid] the same measures were 168 nM and 53.4 nM.
In the same order, the values of `CC1(C)CC(=O)N(c2ccccc2C(F)(F)F)c2cc(COc3cc4c(cn3)[C@H]3[C@@H](C4)[C@@H]3C(=O)O)c(F)cc21` [Example 54, (5aR,6S,6aS)-3-((6-fluoro-4,4-dimethyl-2-oxo-1-(2-(trifluoromethyl)phenyl)-1,2,3,4-tetrahydroquinolin-7-yl)methoxy)-5,5a,6,6a-tetrahydrocyclopropa[4,5] cyclopenta[1,2-c]pyridine-6-carboxylic acid] are 562 nM and 44.9 nM.
In the same order, the values of `COc1ncccc1C1CC(C)(C)c2ccc(COc3cc4c(cn3)[C@H]3[C@@H](C4)[C@@H]3C(=O)O)cc21` (stereo partly drawn) [Example 14, (5aR,6S,6aS)-3-((3-(2-methoxypyridin-3-yl)-1,1-dimethyl-2,3-dihydro-1H-inden-5-yl)methoxy)-5,5a,6,6a-tetrahydro-cyclopropa[4,5]cyclopenta [1,2-c]pyridine-6-carboxylic acid] are 21.8 nM and 11.6 nM.
As for `CC1(C)CC(c2ccccc2C(F)(F)F)c2cc(COc3cc4c(cn3)[C@H]3[C@@H](C4)[C@@H]3C(=O)O)ccc21` (stereo partly drawn) [Example 3, (5aR,6S,6aS)-3-((1,1-dimethyl-3-(2-(trifluoromethyl)phenyl)-2,3-dihydro-1H-inden-5-yl)methoxy)-5,5a,6,6a-tetrahydrocyclopropa[4,5]cyclopenta[1,2-c]pyridine-6-carboxylic acid], the EC50 was 769 nM at Human GPR40 [1] and 9.28 nM on Human GPR40 [2].
In the same order, the values of `CC1(C)OCC2(CO1)CC(c1ccccc1C(F)(F)F)c1cc(COc3cc4c(cn3)[C@H]3[C@@H](C4)[C@@H]3C(=O)O)ccc12` (stereo partly drawn) [Example 8, (5aR,6S,6aS)-3-((2,2-dimethyl-3′-(2-(trifluoromethyl)phenyl)-2′,3′-dihydrospiro[[1,3]dioxane-5,1′-inden]-5′-yl)methoxy)-5,5a,6,6a-tetrahydrocyclopropa[4,5]cyclopenta[1,2-c]pyridine-6-carboxylic acid] are 21.1 nM and 12.3 nM.
For `CC1(C)CC(c2ccccc2C(F)(F)F)c2cc(COc3cc4c(cn3)[C@H]3[C@@H](C4)[C@@H]3C(=O)O)c(F)cc21` (single isomer, unassigned) [Example 22] the same measures were 12.5 nM and 11.9 nM.
In the same order, the values of `COc1nccc(C)c1C1CC(C)(C)c2ccc(COc3cc4c(cn3)[C@H]3[C@@H](C4)[C@@H]3C(=O)O)cc21` (stereo partly drawn) [Example 15, (5aR,6S,6aS)-3-((3-(2-methoxy-4-methylpyridin-3-yl)-1,1-dimethyl-2,3-dihydro-1H-inden-5-yl)methoxy)-5,5a,6,6a-tetrahydrocyclopropa[4,5] cyclopenta[1,2-c]pyridine-6-carboxylic acid] are 7.77 nM and 8.6 nM.
For `CC1(C)C=C(c2ccccc2C(F)(F)F)c2cc(COc3cc4c(cn3)[C@H]3[C@@H](C4)[C@@H]3C(=O)O)ccc21` [Example 4], the EC50 at Human GPR40 [1] is 18 nM; at Human GPR40 [2], 13.7 nM.

These data come from patent US10000454B2, “Antidiabetic tricyclic compounds” (Merck Sharp & Dohme Corp., priority 2014, dated 2018).
